Series [1] concerns MDA-MB-453 (breast; mutant p53). The series can be described thus: MTT antiproliferative assay, MDA-MB-453. The format is cell-based. Particulars: Homo sapiens; MDA-MB-453, MTT, 72 h treatment, mean ± SD of 5–6 data. How it is done:
(§1) Human tumor cell lines A2780 [ovary, adenocarcinoma, accession number HTL98008, obtained from Interlab Cell Line Collection (ICLC), Genova, Italy], A549 (lung, carcinoma, HTL03001, ICLC), MDA-MB-453 (breast, carcinoma, HTL01013, ICLC), and HepG2 (liver, carcinoma, HB-8065, American Type Culture Collection, Rockville, MA, USA ) were plated at 1.4 × 10^4/ml, 0.65 × 10^4/mL, 4.7 × 10^4/mL, and 1.0 × 10^4/mL, respectively, in 180 μL complete medium (RPMI 1640 for A2780 and A549 and DMEM for MDA-MB-453 and HepG2) into flat-bottomed 96-well microtiter plates. After 6–8 h cells were treated with 20 μL containing five 1:10 fold concentrations of our compounds diluted in FCS containing 3% DMSO. As normal non-cancer cell targets we used peripheral blood lymphocytes obtained from three healthy volunteers, isolated by gradient centrifugation (Lympholyte-H Cell Separation Media, EuroClone, Pero, MI, Italy) and stimulated with 1% phytohemagglutinin and 100 U/ml recombinant IL-2. One week after stimulation cells were ready for use at 15,000/well.
(§2) In both cases, after 72 h treatment, the MTT assay was applied as described elsewhere. The IC50 values were calculated from the analysis of single concentration–response curves, each final value is the mean of 5–6 experiments. IC100 and IC75 were extrapolated from the mean concentration–response curves.
On the technique in general: Tetrazolium assays rely on reduction of a dye to a coloured formazan, in cell work by metabolically active cells.

Series [2] relates to activated PBL. The series can be described thus: MTT assay on normal PBL activated with PHA and recombinant IL-2. Format: cell-based. The conditions noted are these: Homo sapiens, mean ± SD of 4–6 IC50 values. As for the experimental part:
as §1
In both cases, after 72 h treatment, the MTT assay was applied as described elsewhere. […] IC100 and IC75 were extrapolated from the mean concentration–response curves.

The test system of series [3] is A549 cells. The series can be described thus: Annexin-V-FITC / propidium iodide apoptosis assay. The format is cell-based, human. Particulars: A549, compounds at their specific IC75s, three days. How it is done:
The induction of apoptosis was evaluated in A549 cells characterized by wild-type p53 and MDM2 proteins. They were plated at the opportune concentration (see above) into 25 cm^2 flasks in 10 mL complete medium. After 6–8 h the compounds were added at their specific IC75s, as previously calculated by the MTT assay.
All floating and adherent cells were harvested three days later, washed with normal saline buffer, and apoptosis determined by double staining with Annexin-V-FITC and propidium iodide (PI) (rh AnnexinV/FITC Kit, Bender MedSystem GmbH, Vienna, Austria). Briefly, 0.5 × 10^6 cells were resuspended in binding buffer 1× and stained with 5 μL of Annexin-V-FITC. After 10 min incubation 10 μL of PI were added and samples incubated for 5 min. Samples were immediately analyzed using a Flow Cytometer (FACScan, BD Biosciences, Milano, Italy) with dedicated software.

The test system of series [4] is p53. The series can be described thus: Western blot of p53 level in A549 cells. Format: cell-based, human. The conditions noted are these: for p53 level: A549, drug concentration equivalent to IC75 (30 µM), fold over mock. As for the experimental part:
(§3) A549 cells were treated with different concentrations of the molecules as indicated. Cell extracts were prepared as described. Ten-20 μg of total proteins were resolved on 4–15% Mini protean TGX precast gels (Bio-Rad) and transferred to nitrocellulose membrane using 1704158 Trans-Blot Turbo Mini NC Transfer Packs (Bio-Rad) in a Trans-Blot Turbo apparatus (Bio-Rad). Membranes were blocked with 5% non-fat dry milk in 0.1% Tween-20 in PBS for 1 h, then incubated for 1 h at room temperature or overnight at 4 °C with the appropriate primary antibody. The following antibodies were employed: anti-p53 (DO-1, sc-126, Santa Cruz Biotechnology, 1:20.000), anti-p21 (2946, Cell Signaling, 1:2000), anti-MDM2 (SMP14, sc-965, Santa Cruz Biotechnology, 1:200), anti β-actin (AC-74, Sigma-Aldrich, 1:30.000); secondary anti-mouse IgG peroxidase conjugate (A9044, Sigma–Aldrich, 1:10.000) and secondary anti-rabbit peroxidase conjugate (A9169, Sigma-Aldrich, 1: 12.000). Detection was carried out with ECL FAST PICO (ECL-1002, Immunological Sciences, Roma, Italy). Chemiluminescence was analysed by Alliance LD, UVITEC Cambridge (Cambridge, UK).

Series [5] concerns MDM2. The series can be described thus: Western blot of MDM2 level in A549 cells. Format: cell-based, human. Particulars: for MDM2 modulation, dose–response: A549, 24 h, 0.01, 0.1, 1, 10 µM; for MDM2 level: A549, drug concentration equivalent to IC75 (30 µM), fold over mock. As for the experimental part: as §3
Series [6] concerns p21. The series can be described thus: Western blot of p21 level in A549 cells. The format is cell-based, human. Particulars: A549. How it is done:
as §3
(In western blotting, separated proteins are transferred to a membrane and probed.)

The subject of series [7] is A549 (lung). The series can be described thus: MTT antiproliferative assay, A549. The format is cell-based. Particulars: Homo sapiens, 72 h treatment, mean ± SD of 5–6 data. How it is done:
as §1, §2

Where [8] appears, read: A549, 0.2 µM derivative alone or 14 µM doxorubicin alone.
The mark [9] stands for this setting: A549, 0.2 µM derivative plus 14 µM doxorubicin.

These results are taken from PMC10167355, “Optimized spirooxindole-pyrazole hybrids targeting the p53-MDM2 interplay induce apoptosis and synergize with doxorubicin in A549 cells” (Scientific Reports, 2023).

The term IC50 denotes the concentration needed to halve the response being measured. What is called melting point is the temperature, or range, at which the solid turns liquid.

Molecules are shown by their SMILES. Entries after “also recorded” stand apart in the source; their conditions may differ.

`Cc1c(C(=O)C2C(c3ccc(C(F)(F)F)cc3)C3CSCN3C23C(=O)Nc2ccccc23)cnn1-c1ccccc1` (stereo not drawn) [8k, 6'-(5-Methyl-1-phenyl-1H-pyrazole-4-carbonyl)-7'-(4-(trifluoromethyl)phenyl)-1',6',7',7a'-tetrahydro-3'H-spiro[indoline-3,5'-pyrrolo[1,2-c]thiazol]-2-one]: the melting point fell in the range of 138 to 139 °C. The same molecule showed an IC50 in series [1] of 21.4 µM. The 50% inhibitory concentration (IC50) in series [2] (PBL A) is 49.8 ± 3.2 µM. Further, the IC50 in series [2] (PBL B) was found to be 55.3 ± 1.4 µM. Further, the IC50 in series [2] (PBL C) came to 50.9 ± 1.2 µM. In addition, the apoptotic activity result in series [3] is reported as “highly significant apoptotic activity; also recorded: considerable high level of apoptosis”. In addition, in series [4], the p53 level result is on record as “did not induce any changes; also recorded: did not induce p53”. The “p53 level, single agent” value in series [4] (setting [8]) is “did not increase”. For the same molecule, the “p53 level, combined treatment compared to doxorubicin alone” value in series [4] (setting [9]) is reported as “no further increases”. Also, in series [5], the “MDM2 modulation, dose–response” value was “induced MDM2 down regulation at any concentration; also recorded: dose-dependent down regulation of MDM2” and the MDM2 level result is reported as “downmodulated MDM2; also recorded: clear down modulation; also recorded: down regulation of MDM2”. Moreover, the “MDM2 level, single agent” value in series [5] (setting [8]) is “slight but not significant MDM2 increase”. Besides, the “MDM2 level, combined treatment compared to doxorubicin alone” value in series [5] (setting [9]) is given as “no further increases”. Further, the “p21 level, single agent” value in series [6] (0.2 µM derivative alone or 14 µM doxorubicin alone) is “did not increase”. Moreover, in series [6] (0.2 µM derivative plus 14 µM doxorubicin), the “p21 level, combined treatment compared to doxorubicin alone” value is recorded as “no further increases”.

For the molecule `Cc1c(C(=O)C2C(c3cccc(Br)c3)C3CSCN3C23C(=O)Nc2ccccc23)cnn1-c1ccccc1` (stereo not drawn) [8m, 7'-(3-Bromophenyl)-6'-(5-methyl-1-phenyl-1H-pyrazole-4-carbonyl)-3',6',7',7a'-tetrahydro-1'H-spiro[indoline-3,5'-pyrrolo[1,2-c]thiazol]-2-one], the melting point is 132 to 133 °C. In addition, in series [7], 17.7 µM corresponded to half-maximal inhibition (IC50). Moreover, in series [2] (PBL A), the concentration for half-maximal inhibition (IC50) came to 48.8 ± 4.9 µM. Also, the IC50 in series [2] (PBL B) was determined as 36.1 ± 14.7 µM. Besides, the concentration for half-maximal inhibition (IC50) in series [2] (PBL C) came out at 68.1 ± 23.8 µM. Further, in series [3], the apoptotic activity result was “highly significant apoptotic activity; also recorded: considerable high level of apoptosis”. Besides, the p53 level result in series [4] is “did not induce any changes; also recorded: did not induce p53”. Moreover, in series [5], the “MDM2 modulation, dose–response” value was “dose-dependent down regulation of MDM2” and the MDM2 level entry is listed as “downmodulated MDM2; also recorded: clear down modulation; also recorded: down regulation of MDM2”.
